ChEMBL document CHEMBL1201862, “PubChem BioAssay data set” (2004)
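Test compounds were applied to cells in 96-well plates for 48 hours at 5 doses. GI50: concentration for 50% inhibition of growth.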 Active and inactive are the calls of the source. Cut-off read from the data, not from the text of the source: active = GI50 up to about 1.1 µM and inactive = higher.

Columns and labels:
Assay in all cases: growth of human tumour cells (NCI), 48 h
HCT-15 = tested on: HCT-15
NCI-H226 = tested on: NCI-H226
HCC 2998 = tested on: HCC 2998
M14 = tested on: M14
KM12 = tested on: KM12
SN12C = tested on: SN12C
UO-31 = tested on: UO-31
IGROV-1 = tested on: IGROV-1
OVCAR-4 = tested on: OVCAR-4
T47D = tested on: T47D
COLO 205 = tested on: COLO 205
CAKI-1 = tested on: CAKI-1
MDA-N = tested on: MDA-N
U-251 = tested on: U-251
K562 = tested on: K562
NCI/ADR-RES = tested on: NCI/ADR-RES
SF-295 = tested on: SF-295
SNB-19 = tested on: SNB-19
SF-268 = tested on: SF-268
786-0 = tested on: 786-0

For `CCn1c(=O)c2c3cc(O)ccc3oc2c2ccc(O)cc21`, the GI50 (HCT-15) was 31 µM, the GI50 (NCI-H226) was 37.1 µM (inactive) and the GI50 (HCC 2998) was 19.3 µM (inactive). For the same compound, the GI50 (M14) was 31.2 µM (inactive), the GI50 (KM12) was 31.8 µM (inactive) and the GI50 (SN12C) was 29.2 µM (inactive). The GI50 (UO-31) was 19.3 µM (inactive), the GI50 (IGROV-1) was 42.6 µM (inactive) and the GI50 (OVCAR-4) was 34.8 µM (inactive). The GI50 (T47D) was 12.6 µM (inactive), the GI50 (COLO 205) was 17.5 µM (inactive) and the GI50 (CAKI-1) was 34.3 µM (inactive). For the same compound, the GI50 (MDA-N) was 30 µM (inactive), the GI50 (U-251) was 22.9 µM (inactive) and the GI50 (K562) was 25.9 µM (inactive). For the same compound, the GI50 (NCI/ADR-RES) was 37.8 µM (inactive), the GI50 (SF-295) was 25 µM (inactive) and the GI50 (SNB-19) was 21.9 µM (inactive). For the same compound, the GI50 (SF-268) was 27.5 µM (inactive) and the GI50 (786-0) was 57.7 µM (inactive).
For `CC[C@@]1(O)C(=O)OCc2c1cc1n(c2=O)Cc2c-1nc1ccccc1c2/C=N\NC(=O)C1CCCN1` (stereo not given in full), the GI50 (HCT-15) was 1.31 µM, the GI50 (NCI-H226) was 0.117 µM (active) and the GI50 (HCC 2998) was 1.98 µM (inactive). The GI50 (M14) was 0.147 µM (active), the GI50 (KM12) was 3.11 µM (inactive) and the GI50 (SN12C) was 0.0275 µM (active). For the same compound, the GI50 (UO-31) was 0.457 µM (active), the GI50 (IGROV-1) was 5.2 µM (inactive) and the GI50 (OVCAR-4) was 19.6 µM (inactive). For the same compound, the GI50 (T47D) was 0.0135 µM (active), the GI50 (COLO 205) was 6.05 µM (inactive) and the GI50 (CAKI-1) was 0.254 µM (active). The GI50 (MDA-N) was 1.8 µM (inactive), the GI50 (U-251) was 0.0362 µM (active) and the GI50 (K562) was 0.163 µM (active). The GI50 (NCI/ADR-RES) was 0.513 µM (active), the GI50 (SF-295) was 0.386 µM (active) and the GI50 (SNB-19) was < 0.0209 µM (active). For the same compound, the GI50 (SF-268) was < 0.0225 µM (active) and the GI50 (786-0) was 0.0461 µM (active).
With `CCCCN1C(=O)c2c(Br)sc(Br)c2C1=O` the GI50 (HCT-15) was 25.7 µM, the GI50 (NCI-H226) was 51.1 µM (inactive) and the GI50 (HCC 2998) was 33.8 µM (inactive). The GI50 (M14) was 31.1 µM (inactive), the GI50 (KM12) was 25.1 µM (inactive) and the GI50 (SN12C) was 34.5 µM (inactive). The GI50 (UO-31) was 33.9 µM (inactive), the GI50 (IGROV-1) was 31.6 µM (inactive) and the GI50 (OVCAR-4) was 25.7 µM (inactive). For the same compound, the GI50 (T47D) was 57.7 µM (inactive), the GI50 (COLO 205) was 19.5 µM (inactive) and the GI50 (CAKI-1) was 67.8 µM (inactive). For the same compound, the GI50 (MDA-N) was 33 µM (inactive), the GI50 (U-251) was 39.1 µM (inactive) and the GI50 (K562) was 30.5 µM (inactive). For the same compound, the GI50 (NCI/ADR-RES) was 30.9 µM (inactive), the GI50 (SF-295) was 43.1 µM (inactive) and the GI50 (SNB-19) was 51.5 µM (inactive). For the same compound, the GI50 (SF-268) was 31.8 µM (inactive) and the GI50 (786-0) was 37 µM (inactive).
`O=C1Cc2c(-c3ccccc3)cc(-c3ccc4ccccc4c3)nc2-c2ccccc2N1` was tested, and the GI50 (HCT-15) was 37.8 µM, the GI50 (NCI-H226) was 8.45 µM (inactive) and the GI50 (HCC 2998) was 22.6 µM (inactive). The GI50 (M14) was 9.2 µM (inactive), the GI50 (KM12) was 4.89 µM (inactive) and the GI50 (SN12C) was 6.22 µM (inactive). For the same compound, the GI50 (UO-31) was 17.3 µM (inactive), the GI50 (IGROV-1) was 1.93 µM (inactive) and the GI50 (OVCAR-4) was 2.9 µM (inactive). For the same compound, the GI50 (T47D) was 18 µM (inactive), the GI50 (COLO 205) was 31.9 µM (inactive) and the GI50 (CAKI-1) was 3.25 µM (inactive). The GI50 (MDA-N) was 8.53 µM (inactive), the GI50 (U-251) was 16.4 µM (inactive) and the GI50 (K562) was 2.39 µM (inactive). For the same compound, the GI50 (NCI/ADR-RES) was 13.2 µM (inactive), the GI50 (SF-295) was 17.8 µM (inactive) and the GI50 (SNB-19) was 3.06 µM (inactive). For the same compound, the GI50 (SF-268) was 4.29 µM (inactive) and the GI50 (786-0) was 3.18 µM (inactive).
In the case of `CCCCCCCCCCCCCCCCCCOC(COP(=O)(O)OCC1OC(n2cc(F)c(=O)[nH]c2=O)CC1O)COP(=O)(O)OCC1OC(n2ccc(N)nc2=O)C(O)C1O` (stereo not given), the GI50 (HCT-15) is reported as 31.4 µM, the GI50 (NCI-H226) is reported as > 87.1 µM (inactive) and the GI50 (HCC 2998) is reported as 0.419 µM (active). The GI50 (M14) was 6.34 µM (inactive), the GI50 (KM12) was 59.2 µM (inactive) and the GI50 (SN12C) was 23.9 µM (inactive). For the same compound, the GI50 (UO-31) was 9.64 µM (inactive), the GI50 (IGROV-1) was 13.6 µM (inactive) and the GI50 (OVCAR-4) was 47.1 µM (inactive). The GI50 (T47D) was > 100 µM (inactive), the GI50 (COLO 205) was 20.8 µM (inactive) and the GI50 (CAKI-1) was 13.2 µM (inactive). For the same compound, the GI50 (MDA-N) was > 95.5 µM (inactive), the GI50 (U-251) was 7.13 µM (inactive) and the GI50 (K562) was > 32.2 µM (inactive). For the same compound, the GI50 (NCI/ADR-RES) was 6.49 µM (inactive), the GI50 (SF-295) was 2.58 µM (inactive) and the GI50 (SNB-19) was 6.46 µM (inactive). The GI50 (SF-268) was 0.536 µM (active) and the GI50 (786-0) was 2.82 µM (inactive).
In the case of `CC(/C=N/N=C1NCCCCN1)=N\N=C1NCCCCN1`, the GI50 (HCT-15) is reported as greater than 100 µM, the GI50 (NCI-H226) is reported as > 100 µM (inactive) and the GI50 (HCC 2998) is reported as > 100 µM (inactive). The GI50 (M14) was 18.2 µM (inactive), the GI50 (KM12) was > 100 µM (inactive) and the GI50 (SN12C) was > 100 µM (inactive). The GI50 (UO-31) was > 100 µM (inactive), the GI50 (IGROV-1) was > 100 µM (inactive) and the GI50 (OVCAR-4) was > 100 µM (inactive). For the same compound, the GI50 (T47D) was > 100 µM (inactive), the GI50 (COLO 205) was 22.3 µM (inactive) and the GI50 (CAKI-1) was > 100 µM (inactive). For the same compound, the GI50 (MDA-N) was 52.2 µM (inactive), the GI50 (U-251) was > 100 µM (inactive) and the GI50 (K562) was 37.1 µM (inactive). For the same compound, the GI50 (NCI/ADR-RES) was > 100 µM (inactive), the GI50 (SF-295) was 47.2 µM (inactive) and the GI50 (SNB-19) was > 100 µM (inactive). For the same compound, the GI50 (SF-268) was > 100 µM (inactive) and the GI50 (786-0) was > 100 µM (inactive).
With `O=C(O)/C=C/c1c2ccc(=O)c(O)c-2oc2c(O)c(O)ccc12` the GI50 (HCT-15) was 61.9 µM, the GI50 (NCI-H226) was 70.8 µM (inactive) and the GI50 (HCC 2998) was > 100 µM (inactive). The GI50 (M14) was 47.4 µM (inactive), the GI50 (KM12) was 25.3 µM (inactive) and the GI50 (SN12C) was 15.3 µM (inactive). The GI50 (UO-31) was 33.9 µM (inactive), the GI50 (IGROV-1) was 82.6 µM (inactive) and the GI50 (OVCAR-4) was 30.3 µM (inactive). For the same compound, the GI50 (T47D) was > 100 µM (inactive), the GI50 (COLO 205) was > 100 µM (inactive) and the GI50 (CAKI-1) was > 100 µM (inactive). The GI50 (MDA-N) was 16.1 µM (inactive), the GI50 (U-251) was 16.1 µM (inactive) and the GI50 (K562) was 21.7 µM (inactive). For the same compound, the GI50 (NCI/ADR-RES) was 65.3 µM (inactive), the GI50 (SF-295) was 24.4 µM (inactive) and the GI50 (SNB-19) was > 100 µM (inactive). For the same compound, the GI50 (SF-268) was > 100 µM (inactive) and the GI50 (786-0) was 18.9 µM (inactive).
